Measurements published in PubChem BioAssay (NCI).
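Following 48 hours of exposure in 96-well plates, responses at five concentrations were used to interpolate endpoints linearly. GI50 is the concentration that inhibits growth by half. TGI denotes the concentration required for complete inhibition of growth.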

How the values were obtained:
Assay in all cases: NCI-60 cell line screen, 48 h
HCT-15 colon = test system: HCT-15 colon
HOP-92 NSCLC = test system: HOP-92 NSCLC
M14 melanoma = test system: M14 melanoma
MCF7 breast = test system: MCF7 breast
MDA-MB-435 = test system: MDA-MB-435
MDA-N = test system: MDA-N
OVCAR-5 ovarian = test system: OVCAR-5 ovarian
SF-295 CNS = test system: SF-295 CNS
T-47D breast = test system: T-47D breast
UACC-257 melanoma = test system: UACC-257 melanoma
TK-10 renal = test system: TK-10 renal

SMILES | TGI (HCT-15 colon) [µM] | TGI (HOP-92 NSCLC) [µM] | TGI (M14 melanoma) [µM] | TGI (MCF7 breast) [µM] | TGI (MDA-MB-435) [µM] | TGI (MDA-N) [µM] | TGI (OVCAR-5 ovarian) [µM] | TGI (SF-295 CNS) [µM] | TGI (T-47D breast) [µM] | TGI (UACC-257 melanoma) [µM] | TGI (TK-10 renal) [µM] | GI50 (TK-10 renal) [µM]
Cc1ccc(S[C@@](C=O)(NC(=O)OCc2ccccc2)C(F)(F)F)cc1 | 54.4 | 65.3 | 78.6 | 78.4 | 86.3 | 58.5 | 54.8 | > 100 | 71 | > 100 |  | 
NC1=NC2(COC(c3ccccc3)(c3ccccc3)c3ccccc3)OC(COC(c3ccccc3)(c3ccccc3)c3ccccc3)C(O)C2O1 (stereo not drawn) | > 100 | > 100 | > 100 | > 100 | > 100 | > 100 | > 100 | > 100 | > 100 | > 100 | > 100 | 
O=C(O)CCCc1ccc2c(c1)CC1(C2)Cc2cc3c(cc2C1)CCCC3 | 23.7 | 44.2 | 30.9 | 94.2 | 38 | 39.9 | 41.3 | 56.9 | > 100 | > 100 | > 100 | 
C[C@@H](CC(=O)OCc1ccccc1)OC1OC(COC(=O)C(C)(C)C)C(OC(=O)C(C)(C)C)C(OC(=O)C(C)(C)C)C1OC(=O)C(C)(C)C (stereo partly drawn) | > 100 | > 100 | > 100 | > 100 | > 100 | > 100 | > 100 | > 100 | > 100 | > 100 | > 100 | 
CC(N)(CC(O)(C(F)(F)Cl)C(F)(F)Cl)C(=O)O (stereo not drawn) | > 10 | > 10 | > 10 | > 10 | > 10 | > 10 | > 10 | > 10 | > 10 | > 10 | > 10 | 
Cc1c(C)c2c(c(N)c1C#N)C(=O)N(Cc1ccc(S(N)(=O)=O)cc1)C2=O | > 100 | > 44.6 | > 73.6 | > 100 | > 100 | > 100 | > 87.9 | > 56.6 | > 59.2 | > 100 | 99.7 | 
N#Cc1c(NC(=O)C(F)(F)F)sc2c3c(=O)c4ccccc4c(=O)c=3oc3ccccc3c12 | 49.7 | > 53.6 | > 61.7 | > 89.9 | 41.4 | 36.5 | 63.3 | 35.8 | 59.3 | 35.7 | 74.6 | 
COc1ccccc1C1c2cc3c(cc2OC2(OC)COC(=O)C12)OCO3 (stereo not drawn) | > 100 | > 93.8 | 43.3 | > 65.7 | 5.74 | 5.51 | > 100 | 63.9 | > 100 | > 100 | > 92.4 | 
O=c1c(-c2ccccc2)nnc2n(Cc3ccccc3)c3ccccc3n12 | > 100 | > 100 | > 100 | > 100 | > 100 | > 100 | > 100 | > 100 | > 100 | > 100 | > 100 | 
CCN(CC)CCNc1ccc([N+](=O)[O-])c2nc3ccc(OC)cc3c(NCCN(CC)CC)c12 | 2.52 | 5.42 | > 5.3 | 2.71 | > 4.78 | 2.39 | 4.79 | 2.6 | > 10 | > 10 | > 8.78 | 
COC(=O)[C@H](Cc1ccccc1)NC(=O)c1ccc(CNC(=O)/C=C/c2csc(-c3ccccc3)n2)cc1 | > 60.4 | 9.88 | 3.81 | 32 | > 36.7 | 15.5 | > 100 | 25.8 | 7.12 | 7.72 | 45.4 | 
[B]C(=O)NC(CC(C)C)C(=O)NCC(=O)NC1c2ccsc2C(=O)C1O (stereo not drawn) (tested in a mixture with another compound) | > 100 | > 100 | > 100 | > 100 | > 100 | > 100 | > 100 | > 100 | > 100 | > 100 | > 100 | 
COC(=O)[C@@H]1[C@@H]2NC(=S)N[C@@]1(C)Oc1ccccc12 | > 100 | > 100 | > 100 | > 100 | 33.5 | 88.1 | > 100 | > 100 | > 100 | > 100 | > 100 | 
O=C(NCCN(CCNC(=O)c1cccc(O)c1O)CCNC(=O)c1cccc(O)c1O)c1cccc(O)c1O | > 100 | > 86.9 | > 100 | > 100 | > 100 | > 100 | > 100 | > 100 | > 89.7 | > 100 | > 100 | 
COC1(OC)CCc2c(sc3ncnc(Nc4cccc(Br)c4)c23)C1 | > 100 | > 100 | > 100 | > 100 | > 100 | > 100 | 51.4 | > 100 | 65.6 | > 100 | > 100 | 
O=c1[nH]c(N/N=C\C(O)C(O)C(O)C(O)CO)nc2ccccc12 (stereo not drawn) | > 100 | > 100 | > 100 | > 100 | > 100 | > 100 | > 100 | > 100 | > 100 | > 100 | > 100 | 
Clc1ccc(C=Nc2ccc(Oc3ccc(Cl)cc3)c(Cl)c2)cc1 | 44.2 | 41 | 46.9 | 88 | 82.5 | 38.8 | > 100 | 37.7 | 89.8 | 77.5 | > 100 | 
Cc1nc2c(sc3nc4c(cc32)CCC4)c(=O)o1 | 99.6 | > 96.4 | > 100 | > 100 | 99.3 | > 100 | > 100 | > 100 | > 100 | > 100 | > 100 | 
CCOc1cnc(C(O)(c2ccccc2)c2ccccc2)o1 | > 100 | > 100 | > 100 | > 100 | > 100 | > 100 | > 100 | > 100 | > 100 | > 100 |  | 

SMILES | TGI (HCT-15 colon) [µM] | TGI (HOP-92 NSCLC) [µM] | TGI (M14 melanoma) [µM] | TGI (MCF7 breast) [µM] | TGI (MDA-MB-435) [µM] | TGI (MDA-N) [µM] | TGI (OVCAR-5 ovarian) [µM] | TGI (SF-295 CNS) [µM] | TGI (T-47D breast) [µM] | TGI (UACC-257 melanoma) [µM] | TGI (TK-10 renal) [µM] | GI50 (TK-10 renal) [µM]
CCCCCCCCCCCCCCCCCCNc1ccn(C2OC(COP(=O)(O)OCC3OC(n4ccc(N)nc4=O)C(O)C3O)C(O)C2O)c(=O)n1 (stereo not drawn) | > 100 | > 100 | > 100 | > 100 | > 100 | > 100 | > 100 | > 100 | > 100 | > 100 | > 100 | 
CC(=O)c1ccc(Nc2c3c(nc4ccccc24)CCCC3)cc1 | > 100 | > 88.8 | 41.7 | > 100 | 13.8 | 11.2 | 97.9 | > 43.2 | > 52.2 | > 74 | > 100 | 
COC(=O)/C=C/c1ccc(OP(=O)(O)O)c(OC)c1 | > 100 | > 100 | > 100 | > 100 | > 100 | > 100 | > 100 | > 100 | > 100 | > 100 | > 100 | 
Cc1ccc(S(=O)(=O)N(CC(O)COc2ccccc2)c2c(F)cccc2F)cc1 (stereo not drawn) | 37 | 8.48 | 32 | 30.7 | 30.5 | 31.4 | > 100 | 86 | 20.1 | 44.5 | 97.5 | 
CCOC(=O)c1cn(CC)c(=O)n2c1nc1ccccc12 | > 100 | > 100 | > 100 | > 100 | > 100 | > 100 | > 100 | > 100 | > 100 | > 100 |  | 
COc1ccc(OC)c2sc(N3C(=O)/C(=C/c4cccc(Oc5ccccc5)c4)N=C3c3ccccc3)nc12 | > 100 | > 100 | > 100 | > 100 | > 100 | > 100 | > 100 | > 100 | > 100 | > 100 | > 100 | 
NCCOc1cccc(C2(N3CCCCC3)CCCCC2)c1 | > 100 | 95.2 | 30.2 | > 100 | 33.6 | 33.3 | > 100 | 77.1 | > 100 | 34 | > 100 | 
CCN(CC)CCNc1ccc2ncn3c4ccc(O)cc4c(=O)c1c23 | 13 | 12.8 | 9.05 | 12.6 | 18.4 | 17.9 | 17.4 | 15.1 | 30.7 | 21.2 | 20.1 | 
S=C1Cc2c(-c3ccccc3)cc(-c3cccc(Cl)c3)nc2-c2ccccc2N1 | 33.4 | 5.12 | > 49.7 | > 58.1 | > 60.9 | 26.5 | > 72.7 | 17.2 | 21.6 | 35 | 1.9 | 0.436
c1cc(-c2ccc(-c3ccsc3)s2)cs1 | > 100 | > 100 | > 100 | > 100 | > 100 | > 100 | > 100 | > 100 | > 100 | > 100 | > 100 | 
C=C1CC[C@@H](CCC2CCC3(OC2)O[C@]2(O)CC[C@@]3(C)OC2(C)C)C(C)(C)[C@H]1C/C=C1\CCOC1=O (stereo partly drawn) | > 81.4 | 66.4 | > 100 | 28.9 | 86.4 | > 100 | > 100 |  | 90.3 | > 67.6 | > 93.1 | 
CCOC(=O)c1c(NC(=O)c2ccccc2)c(C#N)c2n1CCCCC2 | > 100 | > 100 | > 100 | > 100 | > 100 | > 100 | > 100 | > 100 | > 100 | > 100 | > 100 | 
COc1ccc(CCCCNCc2cccc(CNCCCCc3ccc(OC)cc3)c2)cc1 | 3.55 | 2.91 | 3.5 | 3.06 | 3.63 | 4.25 | 4.33 | 3.77 | 4.35 | > 19.7 | 5.02 | 
Cc1nc2sc3cccc(Cl)c3n2c(=O)c1N=Nc1ccc(Cl)cc1 | > 100 | > 100 | > 100 | > 100 | > 100 | > 100 | > 100 | > 100 | > 100 | > 100 | > 100 | 
Cc1ccc(OCC2OC(n3cnc4c(Cl)nc(Nc5cc(Cl)cc(Cl)c5)nc43)CC2Oc2ccc(C)cc2)cc1 (stereo not drawn) | > 100 | > 100 | > 100 | > 100 | > 100 | > 100 | > 100 | > 100 | > 100 | > 100 |  | 
N#Cc1sc2nc3ccccc3n2c1N | > 100 | > 100 | > 100 | > 100 | > 100 | > 100 | > 100 | > 100 | > 100 | > 100 | > 100 | 
O=C(CCc1cc(O)cc(O)c1)NCCc1cc(O)cc(OCc2ccccc2)c1 | > 100 | > 100 | > 100 | > 100 | > 100 | > 100 | > 100 | > 100 | > 100 | > 100 | > 100 | 
CSC(=O)/C=C1\SS/C(=C\C(=O)SC)S1 | 6.07 | 7.87 | 5.24 | 9.19 | 7.08 | 8.37 | 13.7 | 13.7 | 20.6 | 11.3 | 15.5 | 
